pIC50: −log10 of the molar value. Read-outs that look alike come from different tables or passages of the source.
Columns and labels:
[1] = target: PRMT5/MEP50 (Homo sapiens (Human), UniProt O14744); test: MTase-Glo methyl transferase assay (PRMT5 inhibition); assay type: biochemical; conditions: 50 nM PRMT5/MEP50, 25 μM SAM, 5 μM Histone H4 peptide (1-21), read-out: IC50 for PRMT5 inhibiting
Protocol: The PRMT5 inhibitory activity of test compounds was determined using the MTase-Glo™ assay (Promega), which monitors the product (S-adenosyl homocysteine or SAH) of methyltransferase reactions. The PRMT5 MTase-Glo assays were conducted in a 384-well white ProxiPlate (PerkinElmer, catalog no.: 6008280) in a total volume of 12 μL. The PRMT5 enzymatic reaction (in 4 μL) contained 50 nM PRMT5/MEP50 (Reaction Biology Corp, catalog no.: HMT-22-148), 25 μM S-adenosyl methionine (SAM, Promega), 5 μM Histone H4 peptide (1-21) (BPS Bioscience, catalog no.: 52018-2) and five-fold serially diluted compounds in a reaction buffer of 50 mM Tris (pH 8.0), 50 mM NaCl, 0.01% Tween 20, 0.01% BSA, and 1 mM DTT. The test compounds were pre-incubated with PRMT5/MEP50 and Histone H4 peptide for 20 minutes at room temperature before the addition of SAM to initiate the PRMT5 reaction. The reaction was allowed to proceed for 1 hour at 37° C. and was terminated by 2 μL of 3× MTase-Glo™ Reagent (Promega) and 150 μM EPZ015666 (Selleck, catalog no.: 1616391-65-1). After a 30-minute incubation at room temperature, 6 μL of MTase-Glo™ Detection Solution (Promega) was added and the plate was incubated at room temperature for an additional 30 minutes. The light signal corresponding to the amount of SAH produced by the PRMT5 reaction was subsequently measured using an Envision multimode reader (PerkinElmer). IC50 and Ki values were obtained by analyzing dose-response curves using GraphPad Prism.

[2] = test system: HCT116 homozygous MTAP knockout cells; test: HCT116 cell proliferation assay (CTG), MTAP knockout cells; assay type: cell-based, human; conditions: Cell Titer-Glo
Protocol: (§1) Control samples were analyzed in parallel.
(§2) On Day 0, 150 HCT116 parental or HCT116 homozygous MTAP knockout cells were seeded in 96-well plates in McCoy's 5A medium containing 10% fetal bovine serum and pen/strep. And the cells were incubated overnight at 37° C. and 5% CO2.
(§3) On Day 1, cells were treated with 9-point serial dilution of compound, using a top concentration of 50 μM, 1:5 serial dilution steps and, a DMSO-only control. And cells were incubated for 6 days.
(§4) On Day 7, cell viability was measured using a CTG assay Kit (Cell Titer-Glo; Promega, catalog no.: G7573) in accordance with the manufacturer's instructions. Assays plates were read on a EnVision™ Multilabel Reader using the Ultra-Sensitive luminescence model. The data were analyzed by GraphPad Prism 5.0 software, and the dose-effect curve was obtained by fitting the data using nonlinear S-curve regression, from which the IC50 value was calculated.

[3] = Liver microsome metabolic stability (LMS) assay, mouse; conditions: for T1/2 of LMS, M: mouse liver microsome 0.5 mg protein/mL, 1 μM, NADPH
[4] = test system: HCT116 parental (wild type) cells; test: HCT116 cell proliferation assay (CTG), parental cells; assay type: cell-based, human; conditions: Cell Titer-Glo
Protocol: as §1, §2, §3, §4

[5] = test system: human colon cancer cell line HCT116 (WT); test: In vivo efficacy assay, subcutaneous HCT116 WT xenograft; design: species or system Balb/C nude female mouse; conditions: 15 mg/kg PO/QD, 21 days, Balb/C nude mice
Protocol: The antitumor effect or MTAP/MTA selectivity of the compounds provided herein in the subcutaneously transplanted Balb/C nude female mouse model of human colon cancer cell line HCT116 (WT and MTAP KO) was tested.
Cell viability and cell count were determined. Cell count of the suspension was adjusted to 1×10^8 cells/mL and mixed with Matrigel in a 1:1 volume. Each mouse for this study were inoculated subcutaneously in the right front flank region with 5×10^6 tumor cells (0.1 mL) for tumor development.
The randomization started when the mean tumor size reaches approximately 100-150 mm^3. Mice inoculated with HCT116 WT cells were randomized on day 7. Mice inoculated with HCT116 MTAP KO cells were randomized on day 8. All animals were randomly allocated to 5 study groups, each group consisted of 8 animals. Randomization was performed based on randomized block design.
Tumor volume was measured twice per week in two dimensions using a caliper, and the volume was expressed in mm^3 using the formula: “V=(L×W×W)/2”, where V is tumor volume, L is tumor length (the longest tumor dimension) and W is tumor width (the longest tumor dimension perpendicular to L).

[6] = microsomes; for T1/2 of LMS, C / CLint (mic) C: cynomolgus monkey
[7] = microsomes; for T1/2 of LMS, D / CLint (mic) D: dog
[8] = test system: cryopreserved hepatocytes; test: Hepatic metabolic stability (HMS) assay, dog hepatocytes; conditions: for T1/2 (hepatocytes) D / CLint (liver) D: dog hepatocytes; for T1/2 (hepatocytes) D: 1 μM test compound (3 μM positive control); for CLint (liver) D: scaled to liver; for CLint (hep) D: dog, hepatocytes
[9] = test system: cryopreserved hepatocytes; test: Hepatic metabolic stability (HMS) assay, mouse hepatocytes; conditions: for T1/2 (hepatocytes) M / CLint (liver) M: mouse hepatocytes; for T1/2 (hepatocytes) M: 1 μM test compound (3 μM positive control); for CLint (liver) M: scaled to liver; for CLint (hep) M: mouse, hepatocytes
Protocol: 1) 10 mM test compounds were provided.
2) 30 mM positive control stock solutions: Dissolved accurate amount of positive control compounds in dimethyl sulfoxide (DMSO).
3) 1000× Stock Solution: Diluted 10 mM test compounds and 30 mM positive control compounds to 1 mM and 3 mM with DMSO in 96-well plates.
4) 100× Dosing Solution: Diluted 1 mM test compounds and 3 mM positive control compounds to 100 μM and 300 μM dosing solutions with ACN.
5) Preparation of 0.5×10^6/mL cells suspension: cryopreserved cells were thawed, isolated and suspended in Incubation Medium, then diluted with pre-warmed Incubation Medium to 0.5×10^6 cells/mL.
6) Add 198 μL of pre-warmed cell suspensions in 96-well plates.
7) Preparation of Quenching Plate: Transfer 125 μL of stop solution in a set of pre-labeled 96-well plates.
8) Spike 2 μL dosing solution to each well of 96-well plates in duplicate.
9) For TO Samples, mix to achieve a homogenous suspension for about 1 min, then immediately transfer 25 μL of each sample into well containing 125 μL of ice-cold stop solution followed by mixing.
10) Incubate all plates at 37° C. in a 95% humidified incubator at 5% CO2 to start the reactions with constant shaking.
11) At 15, 30, 60 and 90 min, mix samples and then transfer 25 μL of each sample at each time point to well containing 125 μL of ice-cold stop solution followed by mixing.
12) Medium Control (MC) sample plates (labeled as TO-MC and T90-MC) are prepared in the same way as cell incubation except that medium was used instead of cell suspension.
13) At each corresponding time point, stop the reactions by removing the plates from incubator and mixing with 125 μL of ice-cold stop solution.
14) Vortex the plates immediately on a plate shaker at 600 rpm for 10 minutes. Then, centrifuge all sample plates at 3220×g for 20 min at 4° C.
15) After centrifugation, 80 μL/well of supernatant in the sample plates are transferred to another set of pre-labeled 96-well plates which containing 240 μL of ultra pure water according to the plate map.
16) Analytical plates are sealed and store at 4° C. until LC-MS/MS analysis.
The remaining percents of test articles after incubation were calculated by the follow equations:
Use the following equation of first order kinetics to calculate T1/2 and CLint:

[10] = Homo sapiens, HCT-116, 6 days treatment

PRMT5/MEP50, sequence (O14744 whole entry): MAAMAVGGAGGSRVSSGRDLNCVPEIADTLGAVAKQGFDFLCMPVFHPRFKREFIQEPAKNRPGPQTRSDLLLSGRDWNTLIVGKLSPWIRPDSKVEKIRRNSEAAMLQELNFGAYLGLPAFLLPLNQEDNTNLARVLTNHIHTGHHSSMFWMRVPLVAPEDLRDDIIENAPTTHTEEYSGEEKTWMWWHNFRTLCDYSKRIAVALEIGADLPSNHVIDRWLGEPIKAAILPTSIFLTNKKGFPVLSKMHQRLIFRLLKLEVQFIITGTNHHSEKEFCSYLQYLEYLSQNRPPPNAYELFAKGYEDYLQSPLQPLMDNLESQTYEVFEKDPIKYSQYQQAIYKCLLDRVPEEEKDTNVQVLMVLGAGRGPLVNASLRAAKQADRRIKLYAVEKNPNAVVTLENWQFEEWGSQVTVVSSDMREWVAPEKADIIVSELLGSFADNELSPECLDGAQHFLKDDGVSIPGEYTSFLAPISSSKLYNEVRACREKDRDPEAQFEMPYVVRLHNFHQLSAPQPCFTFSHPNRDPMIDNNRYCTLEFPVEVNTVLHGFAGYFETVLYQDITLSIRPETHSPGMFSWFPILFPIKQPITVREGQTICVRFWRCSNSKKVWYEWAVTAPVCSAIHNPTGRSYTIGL
PRMT5/MEP50, sequence (Q9BQA1 whole entry partner): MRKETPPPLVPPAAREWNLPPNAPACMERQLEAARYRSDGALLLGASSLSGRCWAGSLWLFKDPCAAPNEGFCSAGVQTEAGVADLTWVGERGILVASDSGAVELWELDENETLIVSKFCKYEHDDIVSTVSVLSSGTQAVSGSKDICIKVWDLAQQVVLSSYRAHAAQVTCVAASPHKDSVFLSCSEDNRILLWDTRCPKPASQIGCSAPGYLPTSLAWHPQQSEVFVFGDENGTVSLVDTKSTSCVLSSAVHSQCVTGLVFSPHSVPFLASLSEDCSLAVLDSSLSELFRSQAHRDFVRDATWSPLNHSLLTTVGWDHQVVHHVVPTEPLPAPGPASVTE

## CN(C(=O)c1ccc2nc(N)c3cncn3c2c1)[C@@H]1COc2cc(C(F)(F)F)ccc21 [Compound 12]
[1]
  pIC50: 7.59
[2]; [10]
  pIC50: 7.37
[3]; mouse, liver microsomes
  half-life at 1 μM: 1.14 h
[4]; [10]
  pIC50: 5.29

## CN(C(=O)c1ccc2nc(N)c3cncn3c2c1)C1COc2cc(C(F)(F)F)ccc21 (stereo not drawn) [Compound 17]
[1]
  pIC50: 7.92
[2]; 6 days treatment
  pIC50: 7.49
[5]
  Tumor growth inhibition (TGI) HCT 116 WT: 66%
[6]
  T1/2 of LMS, C: 1.07 h
rat, microsomes
  T1/2 of LMS, R: >2.42 h
[7]
  T1/2 of LMS, D: >2.42 h
[4]; 6 days treatment
  pIC50: 5.39

## CN(C(=O)c1cc2c(cn1)nc(N)c1cncn12)C1COc2cc(C(F)(F)F)ccc21 (stereo not drawn) [Compound 19]
[1]
  pIC50: 7.60
[2]; 6 days treatment
  pIC50: 7.41
[8]
  T1/2 (hepatocytes) D: >3.613 h
  CLint (liver) D: <44 mL/min/kg
  CLint (hep) D: <6.4 μL/min/10^6
[5]
  Tumor growth inhibition (TGI) HCT 116 WT: 74%
[6]
  CLint (mic) C: <9.6 µL/min/mg
  T1/2 of LMS, C: >2.42 h
  CLint (liver) C: <13.0 mL/min/kg
microsomes
  CLint (liver) R: <17.3 mL/min/kg
rat, microsomes
  CLint (mic) R: <9.6 µL/min/mg
  T1/2 of LMS, R: >2.42 h
[9]
  T1/2 (hepatocytes) M: 2.35 h
  CLint (liver) M: 116.7 mL/min/kg
  CLint (hep) M: 9.8 μL/min/10^6
[7]
  CLint (mic) D: <9.6 µL/min/mg
  T1/2 of LMS, D: >2.42 h
  CLint (liver) D: <13.8 mL/min/kg
[3]
  T1/2 of LMS, M: 2 h
[4]; 6 days treatment
  pIC50: 5.51

## CN(C(=O)c1cc2c(cn1)nc(N)c1cncn12)C1COc2cc(C(F)(F)F)ccc21 (stereo not drawn) [Compound 21]
[1]
  pIC50: 7.60
[8]
  T1/2 (hepatocytes) D: >3.613 h
  CLint (liver) D: <44 mL/min/kg
  CLint (hep) D: <6.4 μL/min/10^6
[5]
  Tumor growth inhibition (TGI) HCT 116 WT: 59%
[6]
  CLint (mic) C: <9.6 µL/min/mg
  T1/2 of LMS, C: >2.42 h
  CLint (liver) C: <13.0 mL/min/kg
microsomes
  CLint (liver) R: <17.3 mL/min/kg
rat, microsomes
  CLint (mic) R: <9.6 µL/min/mg
  T1/2 of LMS, R: >2.42 h
[9]
  T1/2 (hepatocytes) M: 2.582 h
  CLint (liver) M: 106.3 mL/min/kg
  CLint (hep) M: 8.9 μL/min/10^6
[7]
  CLint (mic) D: <9.6 µL/min/mg
  T1/2 of LMS, D: >2.42 h
  CLint (liver) D: <13.8 mL/min/kg
[3]
  T1/2 of LMS, M: 1.82 h

## CN(C(=O)c1cc2c(cn1)nc(N)c1cncn12)C1CC(F)(F)c2cc(C(F)(F)F)ccc21 (stereo not drawn) [Compound 24]
[1]
  pIC50: 7.85
[2]; 6 days treatment
  pIC50: 7.28
[8]
  T1/2 (hepatocytes) D: 3.577 h
  CLint (liver) D: 44.4 mL/min/kg
  CLint (hep) D: 6.5 μL/min/10^6
[5]
  Tumor growth inhibition (TGI) HCT 116 WT: 62%
Rat liver microsome
  CLint (mic) R: <9.6 µL/min/mg
Rat liver microsome 0.5 mg protein/mL, 1 μM, NADPH
  T1/2 of LMS, R: >2.42 h
Rat liver microsome, scaled to liver
  CLint (liver) R: <17.3 mL/min/kg
[9]
  T1/2 (hepatocytes) M: 1.27 h
  CLint (liver) M: 216.4 mL/min/kg
  CLint (hep) M: 18.2 μL/min/10^6
[3]
  T1/2 of LMS, M: >2.42 h
[4]; 6 days treatment
  pIC50: 5.41

Reference: patent US20240262835A1, “PRMT5 INHIBITING COMPOUNDS AND USES THEREOF” (ANTENGENE DISCOVERY LIMITED, priority 2023, published 2024)
